Reference: PMC5154250 (Biochemistry, 2016)

Assays:
[1] = target: T1, PDH (photoreceptor retinol dehydrogenase, isoform C; PDHc) (Drosophila melanogaster, UniProt B7Z062); assay: differential scanning fluorimetry; format: binding
T1 sequence (B7Z062 2-261): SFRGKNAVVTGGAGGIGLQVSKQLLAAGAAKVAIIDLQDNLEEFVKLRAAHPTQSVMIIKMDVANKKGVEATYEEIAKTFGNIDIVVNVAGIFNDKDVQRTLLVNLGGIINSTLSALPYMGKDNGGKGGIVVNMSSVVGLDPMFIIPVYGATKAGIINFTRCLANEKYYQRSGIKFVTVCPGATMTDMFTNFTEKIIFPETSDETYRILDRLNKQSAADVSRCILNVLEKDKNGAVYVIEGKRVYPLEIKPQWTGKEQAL

[2] = target: Drosophila melanogaster photoreceptor retinol dehydrogenase (PDH) isoform C (Drosophila melanogaster); assay: crystal structure

| Compound | Kd [1] [µM] | stoichiometry N [2] |
| --- | --- | --- |
| NC(=O)c1ccc[n+]([C@@H]2O[C@H](COP(=O)([O-])OP(=O)(O)OC[C@H]3O[C@@H](n4cnc5c(N)ncnc54)[C@H](O)[C@@H]3O)[C@@H](O)[C@H]2O)c1 [NAD^+] | 170 ± 30 |  |
| Drosophila melanogaster photoreceptor retinol dehydrogenase (PDH) isoform C (enzyme) |  | 2 |
